Assay results published in patent US20250099420A1, “SMALL MOLECULE MODULATORS OF GPR139 COMPLEX” (University of Florida Research Foundation, Incorporated, priority 2022, published 2025).
Where two headings read alike, the source gives them in different places.

What was measured:
GPR139 = target: T1, GPR139 (Homo sapiens, UniProt Q6DWJ6); test: GPR139 Agonist titration / agonist counterscreen assay (calcium detection, HEK-GPR139 cells); assay type: cell-based; parameters: expressed in transfected cells; host or cells: HEK Aequorin cells, Maxcyte transient transfection; conditions: GPR139 Agonist Activity; for EC50: read-out: EC50; for Averaged Max % Response (±St. Dev.): activity relative to known control
T1 sequence (Q6DWJ6 1-353): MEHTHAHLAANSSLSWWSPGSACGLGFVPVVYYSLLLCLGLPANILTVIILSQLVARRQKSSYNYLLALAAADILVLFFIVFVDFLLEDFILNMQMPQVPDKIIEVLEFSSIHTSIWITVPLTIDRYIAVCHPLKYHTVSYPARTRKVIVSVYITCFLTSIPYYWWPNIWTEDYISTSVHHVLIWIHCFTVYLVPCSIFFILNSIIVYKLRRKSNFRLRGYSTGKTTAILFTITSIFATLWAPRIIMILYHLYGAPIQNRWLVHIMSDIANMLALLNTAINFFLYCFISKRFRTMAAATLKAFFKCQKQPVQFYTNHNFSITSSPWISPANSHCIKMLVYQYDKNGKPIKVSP
Method: GPR activity was assessed using a calcium detection assay. […] Negative control samples were treated with DMSO. […] Intracellular calcium was measured using Calcium 5.

parental HEK cells = test: HEK parental Agonist Counterscreen Assay (non-transfected cells); assay type: cell-based; conditions: for Averaged Max % Response (±St. Dev.): activity relative to known control
Source text: The high control for the agonist counterscreen was Forskolin not acetylcholine.

[1] = HEK Agonist Activity section of Table 4 (parental HEK counterscreen)
[2] = Homo sapiens, HEK293, HEK Agonist Activity section of Table 4 (parental HEK counterscreen)
[3] = values printed in E-notation without unit
[4] = Homo sapiens, HEK293, HEK Agonist Activity, parental non-transfected HEK cells
[5] = HEK Agonist Activity, parental non-transfected HEK cells

Efficiency Ligand (GPR139) | Hill Slope (GPR139) | Lipophilic Efficiency (logD) (GPR139) | Lipophilic Efficiency (logP) (GPR139) | Averaged Max % Response (±St. Dev.) (GPR139) [%] | Lipophilic Efficiency (logD) (parental HEK cells; HEK Agonist Activity section) | Lipophilic Efficiency (logP) (parental HEK cells; HEK Agonist Activity section) | Lipophilic Efficiency (logD) (GPR139; based on logD) | Lipophilic Efficiency (logP) (GPR139; based on logP) | Hill Slope (GPR139; fitted dose-response curve) | Efficiency Ligand (GPR139; ligand efficiency) | EC50 (GPR139; [3]) [nM] | Lipophilic Efficiency (logD) (parental HEK cells; HEK Agonist Activity) | Lipophilic Efficiency (logP) (parental HEK cells; HEK Agonist Activity) | Compound | EC50 (parental HEK cells; [1]) [nM] | Averaged Max % Response (±St. Dev.) (parental HEK cells; HEK Agonist Activity section) [%] | EC50 (parental HEK cells; [2]) [nM] | Averaged Max % Response (±St. Dev.) (parental HEK cells; HEK Agonist Activity) [%] | other results
0.26 | 1.07 | 1.89 | 1.89 | 63.10 ± 2.62 | 1.05 | 1.05 | – | – | – | – | – | – | – | CCOC(=O)N1CCC2=C(CC(NC(=O)Cc3cccc4ccccc34)=C2C(C)=O)C1 [SR-01000011241] | – | 1.28 ± 10.93 | > 14200 | – | –
– | – | – | – | 109.87 ± 14.69 | – | – | 4.06 | 4.05 | 0.93 | 0.36 | 34.4 | 1.43 | 1.43 | COc1cc(OC)cc(-c2nnc(NC(=O)Cc3cccc4ccccc34)o2)c1 [SR-01000012205] | – | – | – | 1.53 ± 2.99 | EC50 (parental HEK cells; [5]): > 14500 nM
– | – | – | – | 85.12 ± 11.10 | 1.35 | 1.34 | 3.36 | 3.36 | 0.80 | 0.40 | 138 | – | – | O=C(Cc1cccc2ccccc12)Nc1nnc(-c2cccs2)o1 [SR-01000012264] | > 14300 | 3.88 ± 6.42 | – | – | –
– | – | – | – | 97.10 ± 8.84 | 2.38 | 2.38 | 4.46 | 4.46 | 0.83 | 0.44 | 119 | – | – | Cc1ccc(SCC(=O)Nc2nnc(-c3ccco3)o2)cc1 [SR-01000021414] | > 14300 | 22.31 ± 11.03 | – | – | –
– | – | – | – | 122.23 ± 2.65 | – | – | 3.53 | 3.53 | 0.24 | 0.44 | 29.1 | 0.84 | 0.84 | Cc1ccc(SCC(=O)Nc2nnc(-c3ccccc3Cl)o2)cc1 [SR-01000021416] | – | – | – | 23.13 ± 4.18 | EC50 (parental HEK cells; [4]): > 14100 nM
– | – | – | – | 111.88 ± 11.27 | 2.29 | 2.29 | 4.59 | 4.59 | 0.56 | 0.45 | 71.8 | – | – | O=C(CSc1ccc(Cl)cc1)Nc1nnc(-c2ccco2)o1 [SR-01000021433] | – | 27.04 ± 4.04 | > 14300 | – | –
– | – | – | – | 162.60 ± 13.73 | 1.22 | 1.22 | 3.60 | 3.60 | – | 0.42 | > 57.4 | – | – | O=C(CSc1ccc(Cl)cc1)Nc1nnc(-c2ccc(F)cc2)o1 [SR-01000021435] | > 13900 | 24.48 ± 11.03 | – | – | –

The remaining lines, values behind:

Compound | Efficiency Ligand (GPR139) | Hill Slope (GPR139) | Lipophilic Efficiency (logD) (GPR139) | Lipophilic Efficiency (logP) (GPR139) | Averaged Max % Response (±St. Dev.) (GPR139) [%] | Lipophilic Efficiency (logD) (parental HEK cells; HEK Agonist Activity section) | Lipophilic Efficiency (logP) (parental HEK cells; HEK Agonist Activity section) | Lipophilic Efficiency (logD) (GPR139; based on logD) | Lipophilic Efficiency (logP) (GPR139; based on logP) | Hill Slope (GPR139; fitted dose-response curve) | Efficiency Ligand (GPR139; ligand efficiency) | EC50 (GPR139; [3]) [nM] | Lipophilic Efficiency (logD) (parental HEK cells; HEK Agonist Activity) | Lipophilic Efficiency (logP) (parental HEK cells; HEK Agonist Activity) | EC50 (parental HEK cells; [1]) [nM] | Averaged Max % Response (±St. Dev.) (parental HEK cells; HEK Agonist Activity section) [%] | EC50 (parental HEK cells; [2]) [nM] | Averaged Max % Response (±St. Dev.) (parental HEK cells; HEK Agonist Activity) [%] | other results
COc1ccc2c(c1)C[C@H](C(=O)Nc1ccc(-c3cn[nH]c3)cc1OCC1CNC1)NC2.O=C(O)C(F)(F)F.O=C(O)C(F)(F)F.O=C(O)C(F)(F)F [SR-00000006698] | 0.29 | 1.33 | 7.81 | 4.82 | 88.34 ± 12.18 | 6.10 | 3.11 | – | – | – | – | – | – | – | > 14100 | 5.81 ± 4.77 | – | – | EC50 (GPR139; HEK-GPR139 cells): 274 nM
C=C(Nc1ccc(-c2cn[nH]c2)cc1)N(C)Cc1cccc(C(=O)CC)c1 [SR-00000007008] | – | – | – | – | 75.98 ± 6.44 | 1.85 | 1.85 | 3.98 | 3.98 | 0.79 | 0.36 | – | – | – | – | −8.12 ± 2.24 | > 14100 | – | –
COc1ccc2c(c1)C[C@H](C(=O)Nc1ccc(-c3cn[nH]c3)cc1OCCN1CCCC1)NC2.O=C(O)C(F)(F)F.O=C(O)C(F)(F)F.O=C(O)C(F)(F)F [SR-00000007044] | 0.24 | 1.19 | 5.00 | 3.11 | 81.04 ± 10.01 | 3.98 | 2.09 | – | – | – | – | – | – | – | > 14100 | 26.95 ± 5.80 | – | – | EC50 (GPR139; HEK-GPR139 cells): 1400 nM
CCC1Cc2ccc(C)cc2CC1C(=O)Nc1ccc(-c2cn[nH]c2)cc1OCCN(C)C (stereo not drawn) [SR-00000007138] | – | – | – | – | 109.71 ± 13.62 | – | – | 5.84 | 4.48 | 0.17 | 0.31 | 27.1 | 3.12 | 1.76 | – | – | – | 10.53 ± 4.93 | EC50 (parental HEK cells; [4]): > 14100 nM
COc1cccc(CNC(=O)Nc2ccc(-c3ccncc3)cc2)c1.O=C(O)C(F)(F)F [SR-00000007266] | 0.36 | 1.16 | 3.29 | 3.29 | 100.59 ± 15.12 | 1.76 | 1.75 | – | – | – | – | – | – | – | > 14100 | 23.72 ± 3.44 | – | – | EC50 (GPR139; HEK-GPR139 cells): 408 nM
Cc1cccc(CCNC(=O)c2c[nH]c3cc(-c4cn[nH]c4)ccc23)c1 [SR-00000007279] | – | – | – | – | 142.11 ± 3.85 | – | – | 4.81 | 4.80 | 0.18 | 0.38 | 43.1 | 2.30 | 2.29 | – | – | – | 17.20 ± 7.85 | EC50 (parental HEK cells; [4]): > 14100 nM
CN1CC[C@H](Oc2cc(-c3cn[nH]c3)ccc2NC(=O)N(Cc2ccccc2)C2CC2)C1.O=C(O)C(F)(F)F.O=C(O)C(F)(F)F [SR-00000007518] | – | – | – | – | 91.59 ± 7.88 | 2.64 | 1.58 | 4.71 | 3.64 | 0.81 | 0.30 | 120 | – | – | > 14100 | 23.13 ± 2.30 | – | – | –
N#Cc1ccc(OC(=O)COc2cccc3ccccc23)cc1 [SR-01000005203] | 0.38 | 1.01 | 2.24 | 2.24 | 77.18 ± 14.00 | 0.91 | 0.91 | – | – | – | – | – | – | – | – | 16.23 ± 3.90 | > 13900 | – | EC50 (GPR139; HEK-GPR139 cells): 651 nM
Cc1cc(Cl)ccc1OC(C)C(=O)NNC(=O)c1ccccc1 (stereo not drawn) [SR-01000013313] | – | – | – | – | 93.40 ± 11.14 | – | – | 4.45 | 4.44 | 0.63 | 0.48 | 13.3 | 1.41 | 1.40 | – | – | – | 2.95 ± 4.76 | EC50 (parental HEK cells; [4]): > 14400 nM
Cc1ccc(Nc2cn[nH]c(=S)n2)c(C)c1 [SR-01000013346] | 0.54 | 0.99 | 3.66 | 3.24 | 74.67 ± 0.55 | 2.37 | 1.95 | – | – | – | – | – | – | – | – | −4.67 ± 3.34 | > 14600 | – | EC50 (GPR139; HEK-GPR139 cells): 743 nM
CCCc1ccc(NC(=O)CCc2nc3c(c(=O)n2C)CCC3)cc1 [SR-01000017533] | 0.31 | 1.55 | 3.33 | 3.33 | 69.12 ± 3.13 | 2.68 | 2.68 | – | – | – | – | – | – | – | – | −1.95 ± 4.81 | > 14200 | – | –
O=C(CC(c1ccccc1)c1ccccc1)Oc1coc(CSc2ncccn2)cc1=O [SR-01000020502] | – | – | – | – | 91.42 ± 14.52 | – | – | 2.69 | 2.69 | 1.13 | 0.32 | 38.7 | 0.13 | 0.13 | – | – | – | 4.84 ± 4.90 | EC50 (parental HEK cells; [5]): > 13900 nM
